Reference: patent publication US20250346585A1 (Alexion Pharmaceuticals, Inc., priority 2022, published 2025)
pIC50: −log10 of the molar value. Like-named read-outs stand apart in the source and are kept apart here.

Biological target: Human complement C1s enzyme (Homo sapiens (Human), UniProt P09871)
Test: Human C1s enzyme assay
Type: biochemical
Conditions: read-out: IC50 (Stars)
Outline: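 IC50 derived by nonlinear regression of rate versus concentration, with rate taken from A405 kinetics (30 s intervals, 30 min) after adding 100 μM each Z-L-Lys-SBzl and DTNB. C1s from human serum, 1.16 nM, exposed to compound for 5 min at RT beforehand; buffer 50 mM Tris, 1 M NaCl, pH 7.5.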

[1] = Human C1s enzyme assay of Example 3
[2] = Human complement C1s enzyme 1.16 nM, substrate Z-L-Lys-SBzl 100 μM, assay of Example 3

Sequence of Human complement C1s enzyme (P09871 438-688 limits assumed): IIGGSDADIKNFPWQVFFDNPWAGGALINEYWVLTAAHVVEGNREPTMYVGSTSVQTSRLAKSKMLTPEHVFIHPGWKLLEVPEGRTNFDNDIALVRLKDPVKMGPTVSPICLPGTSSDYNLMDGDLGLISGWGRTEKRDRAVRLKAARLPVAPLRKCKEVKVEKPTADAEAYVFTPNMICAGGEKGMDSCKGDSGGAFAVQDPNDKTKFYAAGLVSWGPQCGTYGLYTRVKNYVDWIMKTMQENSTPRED
Sequence of Human complement C1s enzyme (P09871 16-437 partner limits assumed): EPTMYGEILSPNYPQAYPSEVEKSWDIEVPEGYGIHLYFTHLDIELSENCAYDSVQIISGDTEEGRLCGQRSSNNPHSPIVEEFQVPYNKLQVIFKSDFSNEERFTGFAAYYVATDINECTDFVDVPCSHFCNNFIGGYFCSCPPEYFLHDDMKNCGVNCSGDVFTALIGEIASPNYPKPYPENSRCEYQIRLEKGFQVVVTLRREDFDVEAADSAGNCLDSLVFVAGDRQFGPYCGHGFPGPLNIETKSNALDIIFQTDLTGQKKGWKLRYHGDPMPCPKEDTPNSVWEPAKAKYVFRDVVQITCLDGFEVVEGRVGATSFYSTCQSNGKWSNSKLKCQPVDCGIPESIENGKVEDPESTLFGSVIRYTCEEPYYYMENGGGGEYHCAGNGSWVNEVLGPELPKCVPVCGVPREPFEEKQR

pIC50 [1]	pIC50 [2]	SMILES
> 7.00		Cc1ccc2c(c1)C(F)(F)c1ccc(C(=O)NCC(=O)N3CC4(C[C@H]3C(=O)N[C@H](C)c3cc(C(=N)N)cs3)OCCO4)cc1-2 [Compound 190, (S)—N—((R)-1-(4-carbamimidoylthiophen-2-yl)ethyl)-7-((9,9-difluoro-7-methyl-9H-fluorene-3-carbonyl)glycyl)-1,4-dioxa-7-azaspiro[4.4]nonane-8-carboxamide]
> 7.00		C[C@@H](NC(=O)[C@@H]1CC2(CN1C(=O)CNC(=O)c1ccc3c(c1)-c1ccc(F)cc1C3(F)F)OCCO2)c1cc(C(=N)N)cs1 [Compound 193, (8S)—N-[(1R)-1-(4-carbamimidoylthiophen-2-yl)ethyl]-7-{2-[(7,9,9-trifluorofluoren-3-yl)formamido]acetyl}-1,4-dioxa-7-azaspiro[4.4]nonane-8-carboxamide]
> 7.00		C[C@@H](NC(=O)[C@@H]1C[C@](F)(COCCCCCCCCCC(=O)O)CN1C(=O)CNC(=O)c1ccc2c(c1)-c1ccccc1C2(F)F)c1cc(C(=N)N)cs1 [Compound 194, 10-(((3R,5S)-5-(((R)-1-(4-carbamimidoylthiophen-2-yl)ethyl)carbamoyl)-1-((9,9-difluoro-9H-fluorene-3-carbonyl)glycyl)-3-fluoropyrrolidin-3-yl)methoxy)decanoic acid]
	> 7.00	Cc1cc(-c2ccc(C(=O)NCC(=O)N3CC4(C[C@H]3C(=O)NCc3cc(C(=N)N)cs3)OCCO4)cc2)ccc1F [Compound 199, (S)—N-((4-carbamimidoylthiophen-2-yl)methyl)-7-((4′-fluoro-3′-methyl-[1,1′-biphenyl]-4-carbonyl)glycyl)-1,4-dioxa-7-azaspiro[4.4]nonane-8-carboxamide]
	< 6.00	C[C@@H](NC(=O)[C@@H]1CC2(CN1C(=O)CNC(=O)c1ccc3c(c1)-c1ccccc1C3(F)F)OCCO2)c1cc(C(N)=O)cs1 [Compound 200, (S)—N—((R)-1-(4-carbamoylthiophen-2-yl)ethyl)-7-((9,9-difluoro-9H-fluorene-3-carbonyl)glycyl)-1,4-dioxa-7-azaspiro[4.4]nonane-8-carboxamide]
	> 7.00	C[C@@H](NC(=O)[C@@H]1C[C@](F)(COCCCCCC(=O)O)CN1C(=O)CNC(=O)c1ccc2c(c1)-c1ccccc1C2(F)F)c1cc(C(=N)N)cs1 [Compound 201, 6-(((3R,5S)-5-(((R)-1-(4-carbamimidoylthiophen-2-yl)ethyl)carbamoyl)-1-((9,9-difluoro-9H-fluorene-3-carbonyl)glycyl)-3-fluoropyrrolidin-3-yl)methoxy)hexanoic acid]
	> 7.00	C[C@@H](NC(=O)[C@@H]1C[C@@H](F)CN1C(=O)CNC(=O)c1ccc2c(c1)-c1ccccc1C2(F)F)c1cc(C(=N)N)cs1 [Compound 202, (2S,4R)—N—((R)-1-(4-carbamimidoylthiophen-2-yl)ethyl)-1-((9,9-difluoro-9H-fluorene-3-carbonyl)glycyl)-4-fluoropyrrolidine-2-carboxamide]
	> 7.00	C=C1C[C@@H](C(=O)N[C@H](C)c2cc(C(=N)N)cs2)N(C(=O)CNC(=O)c2ccc3c(c2)-c2ccccc2C3(F)F)C1 [Compound 203, (S)—N—((R)-1-(4-carbamimidoylthiophen-2-yl)ethyl)-1-((9,9-difluoro-9H-fluorene-3-carbonyl)glycyl)-4-methylenepyrrolidine-2-carboxamide]
	> 7.00	C[C@@H](NC(=O)[C@@H]1CC2(CN1C(=O)CNC(=O)c1ccc3c(c1)-c1ccccc1C3OC(F)F)OCCO2)c1cc(C(=N)N)cs1 (stereo partly shown) [Compound 204]
	> 7.00	C[C@@H](NC(=O)[C@@H]1C[C@@H](OC(F)F)CN1C(=O)CNC(=O)c1ccc2oc3ccccc3c2c1)c1cc(C(=N)N)cs1 [Compound 205, (2S,4R)—N—((R)-1-(4-carbamimidoylthiophen-2-yl)ethyl)-1-((dibenzo[b,d]furan-2-carbonyl)glycyl)-4-(difluoromethoxy)pyrrolidine-2-carboxamide]
	> 7.00	C[C@@H](NC(=O)[C@@H]1C[C@@H](OC(F)F)CN1C(=O)CNC(=O)c1ccc2cc3ccccc3cc2c1)c1cc(C(=N)N)cs1 [Compound 206, (2S,4R)-1-((anthracene-2-carbonyl)glycyl)-N—((R)-1-(4-carbamimidoylthiophen-2-yl)ethyl)-4-(difluoromethoxy)pyrrolidine-2-carboxamide]
	> 7.00	N=C(N)c1csc(CNC(=O)[C@@H]2CC3(CN2C(=O)CNC(=O)c2ccc(-c4ccc(F)c(F)c4)cc2)OCCO3)c1 [Compound 207, (S)—N-((4-carbamimidoylthiophen-2-yl)methyl)-7-((3′,4′-difluoro-[1,1′-biphenyl]-4-carbonyl)glycyl)-1,4-dioxa-7-azaspiro[4.4]nonane-8-carboxamide]
	> 7.00	Cc1ccc(-c2ccc(C(=O)NCC(=O)N3CC4(C[C@H]3C(=O)NCc3cc(C(=N)N)cs3)OCCO4)cc2)cc1F [Compound 210, (S)—N-((4-carbamimidoylthiophen-2-yl)methyl)-7-((3′-fluoro-4′-methyl-[1,1′-biphenyl]-4-carbonyl)glycyl)-1,4-dioxa-7-azaspiro[4.4]nonane-8-carboxamide]

The next lines start with the compound.

SMILES	pIC50 [1]	pIC50 [2]
COc1ccc2c(c1)C(F)(F)c1ccc(C(=O)NCC(=O)N3CC4(C[C@H]3C(=O)N[C@H](C)c3cc(C(=N)N)cs3)OCCO4)cc1-2 [Compound 191, (S)—N—((R)-1-(4-carbamimidoylthiophen-2-yl)ethyl)-7-((9,9-difluoro-7-methoxy-9H-fluorene-3-carbonyl)glycyl)-1,4-dioxa-7-azaspiro[4.4]nonane-8-carboxamide]	> 7.00	
C[C@@H](NC(=O)[C@@H]1CC2(CN1C(=O)CNC(=O)c1ccc3c(c1)-c1ccc(Cl)cc1C3(F)F)OCCO2)c1cc(C(=N)N)cs1 [Compound 192, (8S)—N-[(1R)-1-(4-carbamimidoylthiophen-2-yl)ethyl]-7-{2-[(7-chloro-9,9-difluorofluoren-3-yl)formamido]acetyl}-1,4-dioxa-7-azaspiro[4.4]nonane-8-carboxamide]	> 7.00	
N=C(N)c1csc(CNC(=O)[C@@H]2CC3(CN2C(=O)CNC(=O)c2ccc(-c4cnc5[nH]ccc5c4)cc2)OCCO3)c1 [Compound 195, (S)-7-((4-(1H-pyrrolo[2,3-b]pyridin-5-yl)benzoyl)glycyl)-N-((4-carbamimidoylthiophen-2-yl)methyl)-1,4-dioxa-7-azaspiro[4.4]nonane-8-carboxamide]	> 7.00	
N=C(N)c1csc(CNC(=O)[C@@H]2CC3(CN2C(=O)CNC(=O)c2ccc(-c4c(F)cccc4F)cc2)OCCO3)c1 [Compound 196, (S)—N-((4-carbamimidoylthiophen-2-yl)methyl)-7-((2′,6′-difluoro-[1,1′-biphenyl]-4-carbonyl)glycyl)-1,4-dioxa-7-azaspiro[4.4]nonane-8-carboxamide]	> 7.00	
Cc1cccc(C)c1-c1ccc(C(=O)NCC(=O)N2CC3(C[C@H]2C(=O)NCc2cc(C(=N)N)cs2)OCCO3)cc1 [Compound 197, (S)—N-((4-carbamimidoylthiophen-2-yl)methyl)-7-((2′,6′-dimethyl-[1,1′-biphenyl]-4-carbonyl)glycyl)-1,4-dioxa-7-azaspiro[4.4]nonane-8-carboxamide]	> 7.00	
N=C(N)c1csc(CNC(=O)[C@@H]2CC3(CN2C(=O)CNC(=O)c2ccc(-c4cnn(Cc5ccccc5)c4)cc2)OCCO3)c1 [Compound 198, (S)-7-((4-(1-benzyl-1H-pyrazol-4-yl)benzoyl)glycyl)-N-((4-carbamimidoylthiophen-2-yl)methyl)-1,4-dioxa-7-azaspiro[4.4]nonane-8-carboxamide]		> 7.00
N=C(N)c1csc(CNC(=O)[C@@H]2CC3(CN2C(=O)CNC(=O)c2ccc(-c4cc(Cl)cc(Cl)c4)cc2)OCCO3)c1 [Compound 208, (S)—N-((4-carbamimidoylthiophen-2-yl)methyl)-7-((3′,5′-dichloro-[1,1′-biphenyl]-4-carbonyl)glycyl)-1,4-dioxa-7-azaspiro[4.4]nonane-8-carboxamide]		> 7.00
N=C(N)c1csc(CNC(=O)[C@@H]2CC3(CN2C(=O)CNC(=O)c2ccc(-c4ccc(F)nc4)cc2)OCCO3)c1 [Compound 209, (S)—N-((4-carbamimidoylthiophen-2-yl)methyl)-7-((4-(6-fluoropyridin-3-yl)benzoyl)glycyl)-1,4-dioxa-7-azaspiro[4.4]nonane-8-carboxamide]		> 7.00
Cc1nc(F)ccc1-c1ccc(C(=O)NCC(=O)N2CC3(C[C@H]2C(=O)NCc2cc(C(=N)N)cs2)OCCO3)cc1 [Compound 211, (S)—N-((4-carbamimidoylthiophen-2-yl)methyl)-7-((4-(6-fluoro-2-methylpyridin-3-yl)benzoyl)glycyl)-1,4-dioxa-7-azaspiro[4.4]nonane-8-carboxamide]		> 7.00
N=C(N)c1csc(CNC(=O)[C@@H]2CC3(CN2C(=O)CNC(=O)c2ccc(-c4ccc(F)c(C(=O)O)c4)cc2)OCCO3)c1 [Compound 212, (S)-4′-((2-(8-(((4-carbamimidoylthiophen-2-yl)methyl)carbamoyl)-1,4-dioxa-7-azaspiro[4.4]nonan-7-yl)-2-oxoethyl)carbamoyl)-4-fluoro-[1,1′-biphenyl]-3-carboxylic acid]		> 7.00
N=C(N)c1csc(CNC(=O)[C@@H]2CC3(CN2C(=O)CNC(=O)c2ccc(-c4ccc(C(=O)O)c(F)c4)cc2)OCCO3)c1 [Compound 213, (S)-4′-((2-(8-(((4-carbamimidoylthiophen-2-yl)methyl)carbamoyl)-1,4-dioxa-7-azaspiro[4.4]nonan-7-yl)-2-oxoethyl)carbamoyl)-3-fluoro-[1,1′-biphenyl]-4-carboxylic acid]		< 6.00
N=C(N)c1csc(CNC(=O)[C@@H]2CC3(CN2C(=O)CNC(=O)c2ccc(-c4ccc(C(=O)O)cc4)cc2)OCCO3)c1 [Compound 214, (S)-4′-((2-(8-(((4-carbamimidoylthiophen-2-yl)methyl)carbamoyl)-1,4-dioxa-7-azaspiro[4.4]nonan-7-yl)-2-oxoethyl)carbamoyl)-[1,1′-biphenyl]-4-carboxylic acid]		> 7.00
